Source: PubChem BioAssay AID1845206 (Molecular Pharmacology Branch, DTP, NCI, 2023)
Active and inactive are the calls of the source. The calls were made as follows: active = viability on the fitted dose curve at most 10% of control; inactive = the rest.

Test system: NCI-H1618 multicellular tumor spheroid viability
Test: Anticancer human tumor NCI-H1618 cell line growth inhibition;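 also: spheroids exposed to agents for 7 days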
Details: for IC50: curve of first compound; for viability, T/C: stronger effect = lower value
Summary of the method: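 Single agents and combinations were tested on spheroids built from tumor cells plus HUVEC and hMSC, at half-log dilutions starting at or near clinical Cmax, else 10 microM; final DMSO 0.25% (v/v).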

[1] = second compound 1 µM, first compound 0.0316 µM
[2] = second compound 1 µM, first compound 0.1 µM
[3] = second compound 1 µM, first compound 0.316 µM
[4] = second compound 1 µM, first compound 1 µM
[5] = second compound 1 µM, first compound 3.16 µM
[6] = second compound 1 µM, first compound 10 µM
[7] = second compound 3.16 µM, first compound 0.0316 µM
[8] = second compound 3.16 µM, first compound 0.1 µM
[9] = second compound 3.16 µM, first compound 0.316 µM
[10] = second compound 3.16 µM, first compound 1 µM
[11] = second compound 3.16 µM, first compound 3.16 µM
[12] = second compound 3.16 µM, first compound 10 µM
[13] = second compound 10 µM, first compound 0.0316 µM
[14] = second compound 10 µM, first compound 0.1 µM
[15] = second compound 10 µM, first compound 0.316 µM
[16] = second compound 10 µM, first compound 1 µM
[17] = second compound 10 µM, first compound 3.16 µM
[18] = second compound 10 µM, first compound 10 µM
[19] = second compound 31.6 µM, first compound 0.0316 µM
[20] = second compound 31.6 µM, first compound 0.1 µM
[21] = second compound 31.6 µM, first compound 0.316 µM
[22] = second compound 31.6 µM, first compound 1 µM
[23] = second compound 31.6 µM, first compound 3.16 µM
[24] = second compound 31.6 µM, first compound 10 µM
[25] = second compound 100 µM, first compound 0.0316 µM
[26] = second compound 100 µM, first compound 0.1 µM
[27] = second compound 100 µM, first compound 0.316 µM
[28] = second compound 100 µM, first compound 1 µM
[29] = second compound 100 µM, first compound 3.16 µM
[30] = second compound 100 µM, first compound 10 µM

CC1COCCN1c1cc(-c2ccnn2C)c2ccnc(-c3ccn[nH]3)c2n1 (stereo not given) + Cn1nnc2c(C(N)=O)ncn2c1=O
IC50 (second compound 1 µM): < 0.0316 µM | IC50 (second compound 3.16 µM): < 0.0316 µM | IC50 (second compound 10 µM): < 0.0316 µM | IC50 (second compound 31.6 µM): < 0.0316 µM | IC50 (second compound 100 µM): < 0.0316 µM | viability, T/C [1]: 3.35% | viability, T/C [2]: 3.94% | viability, T/C [3]: 1.49% | viability, T/C [4]: 2.09% | viability, T/C [5]: 1.02% | viability, T/C [6]: 3.48% | viability, T/C [7]: 10.3% | viability, T/C [8]: 1.64% | viability, T/C [9]: 1.41% | viability, T/C [10]: 1.67% | viability, T/C [11]: 1.26% | viability, T/C [12]: 2.12% | viability, T/C [13]: 1.82% | viability, T/C [14]: 13.4% | viability, T/C [15]: 1.48% | viability, T/C [16]: 1.19% | viability, T/C [17]: 1.65% | viability, T/C [18]: 2.14% | viability, T/C [19]: 1.23% | viability, T/C [20]: 1.26% | viability, T/C [21]: 1.34% | viability, T/C [22]: 1.03% | viability, T/C [23]: 1.36% | viability, T/C [24]: 1.55% | viability, T/C [25]: 1.42% | viability, T/C [26]: 1.23% | viability, T/C [27]: 1.48% | viability, T/C [28]: 1.42% | viability, T/C [29]: 13.7% | viability, T/C [30]: 1.05%

COc1cc(C)[nH]c(=O)c1CN1CCc2c(Cl)cc(C(OC)C3COC3)c(Cl)c2C1=O (stereo not given) + Cn1nnc2c(C(N)=O)ncn2c1=O
IC50 (second compound 1 µM): > 10 µM | IC50 (second compound 3.16 µM): < 0.0316 µM | IC50 (second compound 10 µM): < 0.0316 µM | IC50 (second compound 31.6 µM): < 0.0316 µM | IC50 (second compound 100 µM): < 0.0316 µM | outcome [1]: inactive | viability, T/C [2]: 77.7% | outcome [3]: inactive | outcome [4]: inactive | viability, T/C [5]: 69.6% | viability, T/C [6]: 72.8% | viability, T/C [7]: 14.2% | viability, T/C [8]: 16.2% | viability, T/C [9]: 20.3% | viability, T/C [10]: 10.3% | viability, T/C [11]: 15.8% | viability, T/C [12]: 15.4% | viability, T/C [13]: 3.15% | viability, T/C [14]: 6.34% | viability, T/C [15]: 4.96% | viability, T/C [16]: 18.4% | viability, T/C [17]: 3.33% | viability, T/C [18]: 4.36% | viability, T/C [19]: 6.62% | viability, T/C [20]: 13.3% | viability, T/C [21]: 3.61% | viability, T/C [22]: 5.57% | viability, T/C [23]: 10.4% | viability, T/C [24]: 13% | viability, T/C [25]: 45.3% | viability, T/C [26]: 41.6% | viability, T/C [27]: 29.8% | viability, T/C [28]: 39.6% | viability, T/C [29]: 18.3% | viability, T/C [30]: 45.1%

COc1ccc([C@@H](O)c2cc(-c3ncnc4cc(N5CCOCC5)ccc34)c(F)cc2Cl)nn1 + Cn1nnc2c(C(N)=O)ncn2c1=O
IC50 (second compound 1 µM): 5.42 µM | IC50 (second compound 3.16 µM): < 0.0316 µM | IC50 (second compound 10 µM): < 0.0316 µM | IC50 (second compound 31.6 µM): < 0.0316 µM | IC50 (second compound 100 µM): < 0.0316 µM | viability, T/C [1]: 86.8% | viability, T/C [2]: 92% | viability, T/C [3]: 95.2% | outcome [4]: inactive | viability, T/C [5]: 72.6% | viability, T/C [6]: 24.2% | viability, T/C [7]: 26.6% | viability, T/C [8]: 27.2% | viability, T/C [9]: 17.2% | viability, T/C [10]: 22.2% | viability, T/C [11]: 5.58% | viability, T/C [12]: 6.14% | viability, T/C [13]: 3.36% | viability, T/C [14]: 5.1% | viability, T/C [15]: 5.03% | viability, T/C [16]: 5.47% | viability, T/C [17]: 5.06% | viability, T/C [18]: 5.28% | viability, T/C [19]: 8.19% | viability, T/C [20]: 12.4% | viability, T/C [21]: 14.6% | viability, T/C [22]: 17.1% | viability, T/C [23]: 5.03% | viability, T/C [24]: 5.45% | viability, T/C [25]: 20.6% | viability, T/C [26]: 34.8% | viability, T/C [27]: 63.5% | viability, T/C [28]: 35.5% | viability, T/C [29]: 20.1% | viability, T/C [30]: 12.2%

Cc1cc(C)c(CNC(=O)c2cc(-c3ccc(CN4CCOCC4)cc3)cc3c2cnn3C2CCCC2)c(=O)[nH]1 + Cn1nnc2c(C(N)=O)ncn2c1=O
IC50 (second compound 1 µM): > 10 µM | IC50 (second compound 3.16 µM): < 0.0316 µM | IC50 (second compound 10 µM): < 0.0316 µM | IC50 (second compound 31.6 µM): < 0.0316 µM | IC50 (second compound 100 µM): < 0.0316 µM | viability, T/C [1]: 88.9% | viability, T/C [2]: 82.9% | viability, T/C [3]: 89.8% | outcome [4]: inactive | viability, T/C [5]: 82.3% | viability, T/C [6]: 78.8% | viability, T/C [7]: 24.3% | viability, T/C [8]: 13.1% | viability, T/C [9]: 16.6% | viability, T/C [10]: 22% | viability, T/C [11]: 14.7% | viability, T/C [12]: 19.3% | viability, T/C [13]: 4.25% | viability, T/C [14]: 19.8% | viability, T/C [15]: 10.5% | viability, T/C [16]: 3.64% | viability, T/C [17]: 5.17% | viability, T/C [18]: 4.06% | viability, T/C [19]: 18.2% | viability, T/C [20]: 20.3% | viability, T/C [21]: 20.4% | viability, T/C [22]: 5.16% | viability, T/C [23]: 13.7% | viability, T/C [24]: 12% | viability, T/C [25]: 34.9% | viability, T/C [26]: 63.6% | viability, T/C [27]: 52.6% | viability, T/C [28]: 46.8% | viability, T/C [29]: 66.2% | viability, T/C [30]: 44.2%

Cc1sc2c(c1C)C(c1ccc(Cl)cc1)=NC(CC(=O)Nc1ccc(O)cc1)c1nnc(C)n1-2 (stereo not given) + Cn1nnc2c(C(N)=O)ncn2c1=O
IC50 (second compound 1 µM): 0.783 µM | IC50 (second compound 3.16 µM): < 0.00949 µM | IC50 (second compound 10 µM): < 0.00949 µM | IC50 (second compound 31.6 µM): < 0.00949 µM | IC50 (second compound 100 µM): 0.146 µM | viability, T/C (second compound 1 µM, first compound 0.00949 µM): 97.7% | viability, T/C (second compound 1 µM, first compound 0.03 µM): 20.7% | viability, T/C (second compound 1 µM, first compound 0.0949 µM): 90% | viability, T/C (second compound 1 µM, first compound 0.3 µM): 72% | viability, T/C (second compound 1 µM, first compound 0.949 µM): 45.9% | viability, T/C (second compound 1 µM, first compound 3 µM): 20.5% | viability, T/C (second compound 3.16 µM, first compound 0.00949 µM): 19.5% | viability, T/C (second compound 3.16 µM, first compound 0.03 µM): 35.3% | viability, T/C (second compound 3.16 µM, first compound 0.0949 µM): 49.1% | viability, T/C (second compound 3.16 µM, first compound 0.3 µM): 22.8% | viability, T/C (second compound 3.16 µM, first compound 0.949 µM): 5.18% | viability, T/C (second compound 3.16 µM, first compound 3 µM): 5.41% | viability, T/C (second compound 10 µM, first compound 0.00949 µM): 6.33% | viability, T/C (second compound 10 µM, first compound 0.03 µM): 21.3% | viability, T/C (second compound 10 µM, first compound 0.0949 µM): 5.98% | viability, T/C (second compound 10 µM, first compound 0.3 µM): 18.9% | viability, T/C (second compound 10 µM, first compound 0.949 µM): 2.4% | viability, T/C (second compound 10 µM, first compound 3 µM): 1.94% | viability, T/C (second compound 31.6 µM, first compound 0.00949 µM): 7.34% | viability, T/C (second compound 31.6 µM, first compound 0.03 µM): 9.11% | viability, T/C (second compound 31.6 µM, first compound 0.0949 µM): 17.6% | viability, T/C (second compound 31.6 µM, first compound 0.3 µM): 4.34% | viability, T/C (second compound 31.6 µM, first compound 0.949 µM): 1.89% | viability, T/C (second compound 31.6 µM, first compound 3 µM): 1.29% | viability, T/C (second compound 100 µM, first compound 0.00949 µM): 53.6% | viability, T/C (second compound 100 µM, first compound 0.03 µM): 78.7% | viability, T/C (second compound 100 µM, first compound 0.0949 µM): 70.3% | viability, T/C (second compound 100 µM, first compound 0.3 µM): 20.8% | viability, T/C (second compound 100 µM, first compound 0.949 µM): 6.16% | viability, T/C (second compound 100 µM, first compound 3 µM): 0.99%

[2H]c1nc(C)nc([2H])c1-c1cc(NC[C@@H](C)c2cccc3c(C(=O)NC)ccnc23)ncn1 + Cn1nnc2c(C(N)=O)ncn2c1=O
IC50 (second compound 1 µM): > 10 µM | IC50 (second compound 3.16 µM): < 0.0316 µM | IC50 (second compound 10 µM): < 0.0316 µM | IC50 (second compound 31.6 µM): < 0.0316 µM | IC50 (second compound 100 µM): < 0.0316 µM | viability, T/C [1]: 91.3% | viability, T/C [2]: 91.9% | viability, T/C [3]: 85.3% | viability, T/C [4]: 85.3% | viability, T/C [5]: 89.2% | viability, T/C [6]: 89.3% | viability, T/C [7]: 33.1% | viability, T/C [8]: 29.5% | viability, T/C [9]: 21.9% | viability, T/C [10]: 28.1% | viability, T/C [11]: 13.1% | viability, T/C [12]: 27.3% | viability, T/C [13]: 4.05% | viability, T/C [14]: 4.95% | viability, T/C [15]: 5.87% | viability, T/C [16]: 7.24% | viability, T/C [17]: 4.35% | viability, T/C [18]: 11.5% | viability, T/C [19]: 20.8% | viability, T/C [20]: 19.9% | viability, T/C [21]: 11.3% | viability, T/C [22]: 15.1% | viability, T/C [23]: 6.28% | viability, T/C [24]: 5.54% | viability, T/C [25]: 61.9% | viability, T/C [26]: 36.3% | viability, T/C [27]: 22.1% | viability, T/C [28]: 59% | viability, T/C [29]: 46.6% | viability, T/C [30]: 34.6%
